Results reported in PubChem BioAssay (NCI).
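Compound exposure: 48 hours, 5 concentrations, 96-well plates. The concentration for full growth arrest is given as TGI.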

Columns and labels:
Experiment in all cases: inhibition of tumour cell growth, NCI panel, 48 h
[1] = tested on: CCRF-CEM leukemia
[2] = tested on: 786-0 renal
[3] = tested on: LOX IMVI melanoma
[4] = tested on: EKVX NSCLC
[5] = tested on: UACC-257 melanoma
[6] = tested on: M19-MEL melanoma
[7] = tested on: OVCAR-5 ovarian
[8] = tested on: SN12C renal
[9] = tested on: TK-10 renal
[10] = tested on: NCI-H226 lung
[11] = tested on: HCC-2998 colon
[12] = tested on: MALME-3M melanoma
[13] = tested on: DMS 114 small cell lung
[14] = tested on: COLO 205 colon
[15] = tested on: UO-31 renal
[16] = tested on: RXF 393 renal
[17] = tested on: U251 CNS
[18] = tested on: IGROV1 ovarian
[19] = tested on: HL-60(TB) leukemia
[20] = tested on: SF-539 CNS
[21] = tested on: SK-MEL-2 melanoma
[22] = tested on: RPMI-8226 leukemia
[23] = tested on: NCI-H23 lung
[24] = tested on: M14 melanoma
[25] = tested on: A549 NSCLC
[26] = tested on: SK-OV-3 ovarian
[27] = tested on: KM12 colon
[28] = tested on: A498 renal
[29] = tested on: SK-MEL-28 melanoma
[30] = tested on: SW-620 colon
[31] = tested on: SF-268 CNS
[32] = tested on: SNB-19 CNS
[33] = tested on: HOP-62 NSCLC
[34] = tested on: SR leukemia
[35] = tested on: ACHN renal
[36] = tested on: OVCAR-3 ovarian
[37] = tested on: HOP-18 NSCLC
[38] = tested on: NCI-H522 lung
[39] = tested on: SNB-78 CNS
[40] = tested on: K-562 leukemia
[41] = tested on: HCT-116 colon
[42] = tested on: UACC-62 melanoma
[43] = tested on: HOP-92 NSCLC
[44] = tested on: LXFL 529 NSCLC
[45] = tested on: DLD-1 colon
[46] = tested on: HT29 colon
[47] = tested on: SF-295 CNS
[48] = tested on: KM20L2 colon
[49] = tested on: SNB-75 CNS
[50] = tested on: MOLT-4 leukemia
[51] = tested on: XF 498 CNS
[52] = tested on: OVCAR-8 ovarian
[53] = tested on: OVCAR-4 ovarian
[54] = tested on: SK-MEL-5 melanoma
[55] = tested on: DMS 273 small cell lung
[56] = tested on: NCI-H460 lung
[57] = tested on: HCT-15 colon
[58] = tested on: CAKI-1 renal

COc1ccc(/C(C#N)=C(/N)SCc2ccccc2Cl)cc1
TGI [1]: > 100 µM | TGI [2]: 32.7 µM | TGI [3]: 29 µM | TGI [4]: 48.2 µM | TGI [5]: 33.7 µM | TGI [6]: 40.6 µM | TGI [7]: 32.9 µM | TGI [8]: 91.3 µM | TGI [9]: 94.7 µM | TGI [10]: 33.3 µM | TGI [11]: 31.7 µM | TGI [12]: 44.7 µM | TGI [13]: 37.1 µM | TGI [14]: 41.6 µM | TGI [15]: > 10 µM | TGI [16]: 30.9 µM | TGI [17]: 32.6 µM | TGI [18]: > 100 µM | TGI [19]: 63.4 µM | TGI [20]: 32.5 µM | TGI [21]: 32.6 µM | TGI [22]: > 100 µM | TGI [23]: 34.2 µM | TGI [24]: 27.8 µM | TGI [25]: > 100 µM | TGI [26]: 86.9 µM | TGI [27]: > 10 µM | TGI [28]: 42.3 µM | TGI [29]: 35.8 µM | TGI [30]: 29.7 µM | TGI [31]: 33.2 µM | TGI [32]: > 10 µM | TGI [33]: 34.1 µM | TGI [34]: > 100 µM | TGI [35]: > 10 µM | TGI [36]: 24.3 µM | TGI [37]: 38.2 µM | TGI [38]: 27.4 µM | TGI [39]: 64.2 µM | TGI [40]: 49.5 µM | TGI [41]: 32.8 µM | TGI [42]: 25.4 µM | TGI [43]: 34.5 µM | TGI [44]: 31.2 µM | TGI [45]: 32.7 µM | TGI [46]: 33.3 µM | TGI [47]: 31.5 µM | TGI [48]: 34.3 µM | TGI [49]: 63.6 µM | TGI [50]: 85.2 µM | TGI [51]: 30.3 µM | TGI [52]: > 10 µM

CCOC(=O)C1Oc2ccc([N+](=O)[O-])cc2C1(C)O (stereo not drawn)
TGI [1]: > 100 µM | TGI [2]: > 100 µM | TGI [3]: > 100 µM | TGI [4]: > 100 µM | TGI [53]: > 100 µM | TGI [5]: > 100 µM | TGI [54]: > 100 µM | TGI [6]: > 100 µM | TGI [55]: > 100 µM | TGI [7]: > 100 µM | TGI [8]: > 100 µM | TGI [9]: > 100 µM | TGI [56]: > 100 µM | TGI [10]: > 100 µM | TGI [11]: > 100 µM | TGI [12]: > 100 µM | TGI [13]: > 100 µM | TGI [57]: > 100 µM | TGI [14]: > 100 µM | TGI [15]: > 100 µM | TGI [16]: > 100 µM | TGI [17]: > 100 µM | TGI [18]: > 100 µM | TGI [19]: > 100 µM | TGI [20]: > 100 µM | TGI [21]: > 100 µM | TGI [22]: > 100 µM | TGI [23]: > 100 µM | TGI [24]: > 100 µM | TGI [25]: > 100 µM | TGI [26]: > 100 µM | TGI [27]: > 100 µM | TGI [28]: > 100 µM | TGI [29]: > 100 µM | TGI [30]: > 100 µM | TGI [31]: > 100 µM | TGI [32]: > 100 µM | TGI [33]: > 100 µM | TGI [34]: > 100 µM | TGI [35]: > 100 µM | TGI [36]: > 100 µM | TGI [38]: > 100 µM | TGI [39]: > 100 µM | TGI [40]: > 100 µM | TGI [42]: > 100 µM | TGI [43]: > 100 µM | TGI [44]: > 100 µM | TGI [45]: > 100 µM | TGI [46]: > 100 µM | TGI [47]: > 100 µM | TGI [49]: > 100 µM | TGI [50]: > 100 µM | TGI [51]: > 100 µM | TGI [52]: > 100 µM

O=C1Cc2ccccc2CCc2ccsc21
TGI [1]: > 100 µM | TGI [2]: > 100 µM | TGI [3]: > 100 µM | TGI [4]: > 100 µM | TGI [53]: > 100 µM | TGI [5]: > 100 µM | TGI [54]: > 100 µM | TGI [6]: > 100 µM | TGI [55]: > 100 µM | TGI [58]: > 100 µM | TGI [7]: > 100 µM | TGI [8]: > 100 µM | TGI [9]: > 100 µM | TGI [56]: > 100 µM | TGI [10]: > 100 µM | TGI [11]: > 100 µM | TGI [12]: > 100 µM | TGI [57]: > 100 µM | TGI [14]: > 100 µM | TGI [15]: > 100 µM | TGI [16]: > 100 µM | TGI [17]: > 100 µM | TGI [18]: > 100 µM | TGI [19]: > 100 µM | TGI [20]: > 100 µM | TGI [21]: > 100 µM | TGI [22]: > 100 µM | TGI [23]: > 100 µM | TGI [24]: > 100 µM | TGI [25]: > 100 µM | TGI [26]: > 100 µM | TGI [27]: > 100 µM | TGI [28]: > 100 µM | TGI [29]: > 100 µM | TGI [30]: > 100 µM | TGI [31]: > 100 µM | TGI [32]: > 100 µM | TGI [34]: > 100 µM | TGI [36]: > 100 µM | TGI [37]: > 100 µM | TGI [38]: > 100 µM | TGI [39]: > 100 µM | TGI [40]: > 100 µM | TGI [41]: > 100 µM | TGI [43]: > 100 µM | TGI [44]: > 100 µM | TGI [45]: > 100 µM | TGI [46]: > 100 µM | TGI [47]: > 100 µM | TGI [48]: > 100 µM | TGI [49]: > 100 µM | TGI [50]: > 100 µM | TGI [51]: > 100 µM | TGI [52]: > 100 µM

Cc1cc(C)nc(NS(=O)(=O)c2ccc(NC(=O)c3cccc4c(N)c5ccccc5nc34)cc2)n1
TGI [1]: > 100 µM | TGI [2]: > 100 µM | TGI [3]: > 100 µM | TGI [4]: > 100 µM | TGI [53]: > 100 µM | TGI [5]: > 100 µM | TGI [54]: > 100 µM | TGI [6]: > 100 µM | TGI [55]: > 100 µM | TGI [58]: > 100 µM | TGI [7]: > 100 µM | TGI [8]: > 100 µM | TGI [9]: > 100 µM | TGI [56]: > 100 µM | TGI [10]: > 100 µM | TGI [11]: > 100 µM | TGI [12]: > 100 µM | TGI [13]: > 100 µM | TGI [57]: > 100 µM | TGI [14]: > 100 µM | TGI [15]: > 100 µM | TGI [16]: > 100 µM | TGI [17]: > 100 µM | TGI [18]: > 100 µM | TGI [20]: > 100 µM | TGI [21]: > 100 µM | TGI [22]: > 100 µM | TGI [23]: > 100 µM | TGI [24]: > 100 µM | TGI [25]: > 100 µM | TGI [26]: > 100 µM | TGI [27]: > 100 µM | TGI [28]: > 100 µM | TGI [29]: > 100 µM | TGI [30]: > 100 µM | TGI [31]: > 100 µM | TGI [32]: > 100 µM | TGI [33]: > 100 µM | TGI [35]: > 100 µM | TGI [36]: > 100 µM | TGI [38]: > 100 µM | TGI [39]: > 100 µM | TGI [40]: > 100 µM | TGI [41]: > 100 µM | TGI [42]: > 100 µM | TGI [44]: > 100 µM | TGI [45]: > 100 µM | TGI [47]: > 100 µM | TGI [48]: > 100 µM | TGI [49]: > 100 µM | TGI [50]: > 100 µM | TGI [51]: > 100 µM | TGI [52]: > 100 µM
